Results taken from patent US20250099420A1, “SMALL MOLECULE MODULATORS OF GPR139 COMPLEX” (University of Florida Research Foundation, Incorporated, priority 2022, published 2025).
Read-outs that look alike come from different tables or passages of the source.

Assays:
parental HEK cells = experiment: HEK parental Agonist Counterscreen Assay (non-transfected cells); type: cell-based; conditions: for Averaged Max % Response (±St. Dev.): activity relative to known control
Text: The high control for the agonist counterscreen was Forskolin not acetylcholine.

GPR139 = target: T1, GPR139 (Homo sapiens, UniProt Q6DWJ6); experiment: GPR139 Agonist titration / agonist counterscreen assay (calcium detection, HEK-GPR139 cells); type: cell-based; design: expressed in transfected cells; host or cells: HEK Aequorin cells, Maxcyte transient transfection; conditions: GPR139 Agonist Activity; for EC50: read-out: EC50; for Averaged Max % Response (±St. Dev.): activity relative to known control
T1 sequence (Q6DWJ6 1-353): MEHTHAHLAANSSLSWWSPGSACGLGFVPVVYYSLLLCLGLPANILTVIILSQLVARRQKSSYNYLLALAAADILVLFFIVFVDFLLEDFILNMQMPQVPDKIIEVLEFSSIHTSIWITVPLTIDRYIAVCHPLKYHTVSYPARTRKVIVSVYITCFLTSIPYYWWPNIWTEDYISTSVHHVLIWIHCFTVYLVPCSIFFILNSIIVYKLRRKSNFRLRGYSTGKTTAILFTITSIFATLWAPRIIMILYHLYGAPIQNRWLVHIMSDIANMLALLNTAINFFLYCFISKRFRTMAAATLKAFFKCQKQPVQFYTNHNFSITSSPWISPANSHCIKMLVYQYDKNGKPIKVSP
Procedure: GPR activity was assessed using a calcium detection assay. […] Negative control samples were treated with DMSO. […] Intracellular calcium was measured using Calcium 5.

[1] = Homo sapiens, HEK293, HEK Agonist Activity section of Table 4 (parental HEK counterscreen)
[2] = HEK Agonist Activity section of Table 4 (parental HEK counterscreen)
[3] = values printed in E-notation without unit

Compound | Lipophilic Efficiency (logD) (parental HEK cells; HEK Agonist Activity section) | Lipophilic Efficiency (logP) (parental HEK cells; HEK Agonist Activity section) | Averaged Max % Response (±St. Dev.) (parental HEK cells; HEK Agonist Activity section) [%] | EC50 (parental HEK cells; [1]) [nM] | Efficiency Ligand (GPR139) | Hill Slope (GPR139) | Lipophilic Efficiency (logD) (GPR139) | Lipophilic Efficiency (logP) (GPR139) | EC50 (GPR139; HEK-GPR139 cells) [nM] | Averaged Max % Response (±St. Dev.) (GPR139) [%] | EC50 (parental HEK cells; [2]) [nM] | Lipophilic Efficiency (logD) (GPR139; based on logD) | Lipophilic Efficiency (logP) (GPR139; based on logP) | Hill Slope (GPR139; fitted dose-response curve) | Efficiency Ligand (GPR139; ligand efficiency) | EC50 (GPR139; [3]) [nM] | further results
O=C(Cn1ncc2c1-c1ccccc1OC2)Nc1ccc(CCO)cc1 [SR-01000098914] | 2.18 | 2.18 | 11.28 ± 8.03 | > 14100 | 0.34 | 0.93 | 3.66 | 3.66 | 468 | 97.42 ± 2.76 | – | – | – | – | – | – | –
CC(C)c1ccc(NC(=O)Cn2ncc3c2-c2ccccc2OC3)cc1 [SR-01000098920] | 1.13 | 1.13 | 10.87 ± 9.19 | – | – | – | – | – | – | 139.09 ± 25.80 | > 14100 | 3.02 | 3.02 | 0.40 | 0.36 | 181 | –
CCc1cccc(NC(=O)Cn2ncc3c2-c2ccccc2OC3)c1 [SR-01000098944] | – | – | – | – | – | – | – | – | – | 118.40 ± 16.09 | – | 4.22 | 4.22 | 0.20 | 0.43 | 22.4 | Lipophilic Efficiency (logD) (parental HEK cells; HEK Agonist Activity): 1.42; Lipophilic Efficiency (logP) (parental HEK cells; HEK Agonist Activity): 1.42; Averaged Max % Response (±St. Dev.) (parental HEK cells; HEK Agonist Activity): 16.33 ± 3.15%; EC50 (parental HEK cells; HEK Agonist Activity, parental non-transfected HEK cells): > 14100 nM
C=C(CC1C=CC2=C1c1ccccc1CC2)Nc1ccc(CC)cc1 (centres unmarked) [SR-01000098976] | 2.53 | 2.53 | 25.21 ± 6.04 | > 14100 | – | – | – | – | – | 103.10 ± 11.12 | – | 4.60 | 4.60 | 0.87 | 0.39 | – | –
O=C(Cn1ncc2c1-c1ccccc1OC2)Nc1ccc(Cl)cc1 [SR-01000098980] | 1.77 | 1.77 | 16.39 ± 16.07 | – | 0.36 | 0.43 | 3.09 | 3.09 | 680 | 103.90 ± 24.19 | > 14100 | – | – | – | – | – | –
CCc1nn(CC(=O)NCc2cccc(Br)c2)c(=O)c2cc3occc3n12 [SR-01000099472] | – | – | – | – | – | – | – | – | – | 105.06 ± 17.21 | – | 5.32 | 5.32 | 0.88 | 0.39 | 26.3 | Lipophilic Efficiency (logD) (parental HEK cells; HEK Agonist Activity): 2.60; Lipophilic Efficiency (logP) (parental HEK cells; HEK Agonist Activity): 2.60; Averaged Max % Response (±St. Dev.) (parental HEK cells; HEK Agonist Activity): 10.79 ± 6.86%; EC50 (parental HEK cells; Homo sapiens, HEK293, HEK Agonist Activity, parental non-transfected HEK cells): > 14100 nM
O=C(Cn1ncn2c(cc3sccc32)c1=O)NCCc1ccc(Cl)cc1 [SR-01000099712] | 2.50 | 2.50 | 7.86 ± 5.01 | > 14100 | 0.33 | 1.73 | 3.73 | 3.73 | 839 | 90.08 ± 9.76 | – | – | – | – | – | – | –
CCCc1cc(=O)n2[nH]c(NCc3ccccc3F)nc2n1 [SR-01000100493] | 1.65 | 1.65 | 4.54 ± 3.12 | – | – | – | – | – | – | 100.68 ± 11.72 | > 14100 | 3.60 | 3.60 | 0.73 | 0.43 | 160 | –
Cc1ccc(Br)cc1S(=O)(=O)NCCC(=O)NCCc1sccc1C [SR-01000101329] | 3.17 | 3.16 | −2.50 ± 6.06 | > 14100 | – | – | – | – | – | 102.96 ± 12.58 | – | 5.16 | 5.15 | 0.79 | 0.38 | – | –
COc1ccc(CCC(=O)Nc2ccc(/C(N)=N/O)cc2)cc1 [SR-01000103876] | 2.61 | 2.60 | 1.17 ± 3.96 | – | – | – | – | – | – | 114.46 ± 17.21 | > 14100 | 4.50 | 4.50 | 0.82 | 0.41 | 179 | –
